# Experimental data: patent US6635650B2, “Substituted dimeric compounds” (Les Laboratoires Servier, priority 1999, dated 2003)
compound,measurement,value
"CC(=O)NCCc1cccc2ccc(OCCCCCCOc3ccc4cccc(CCNC(C)=O)c4c3)cc12 [Example 17, N-[2-(7-{[6-({8-[2-(Acetylamino)ethyl]-2-naphthyl}oxy)hexyl]oxy}-1-naphthyl)ethyl]acetamide]",melting point,142 to 144 °C
